Data taken from patent US12514851B2, “Use of 2,3,5-substituted thiophene compound for preventing, ameliorating, or treating ovarian cancer” (PHAROS IBIO CO., LTD, priority 2020, dated 2026).

Key:
Assay type in all cases: cell-based
[1] = tested on: SW626 ovarian cancer cell line; test: Inhibitory activity against ovarian cancer cell lines, agents alone (Celltiter glo cell viability)
Procedure: (§5) In 100-mm culture dishes (SPL) at 37° C. under 5% CO2, the CAOV3 ovarian cancer cell line was cultured using DMEM (Dulbeco's Modified Eagle Medium), and the OVCAR3, SK-OV-3 and SW626 ovarian cancer cell lines were cultured using RPMI1640 medium. Thereafter, each cell line was diluted to 3,000 cells/80 μl using PBS (phosphate-buffered saline) (Biosesang).
(§6) After incubation, the cells were counted using a Celltiter glo assay kit (Promega), and cell viability was measured by expressing the cell count as a percentage relative to that of a control group not treated with PHI-101 or the anticancer agent.

[2] = tested on: CAOV3 ovarian cancer cell line; test: as above
Procedure: as §5, §6

[3] = tested on: SK-OV-3 ovarian cancer cell line; test: as above; conditions: SK-OV3
Procedure: as §5, §6

[4] = tested on: SK-OV3 ovarian cancer cell line; test: Synergistic effect of PHI-101 and olaparib (Celltiter glo viability, Combination Index by CalcuSyn); conditions: Homo sapiens, SK-OV-3, Table 7, combination index experiment, 72 hours
Procedure: (§1) In order to establish the concentrations of PHI-101 and olaparib which are in an integer ratio in the combination index experiment, based on the IC50 value of olaparib relative to the relatively low IC50 value (1×) of PHI-101, the integer ratio between PHI-101 and olaparib was obtained as shown in Table 4 below.
(§2) Each prepared 10× solution was serially diluted at 1:2 in each of six E-tubes, each containing 150 μl of medium. Then, a PHI-101 96-well plate (FIG. 4) and an olaparib 96-well plate (FIG. 5) were prepared separately, and 30 μl of the serially diluted PHI-101 or olaparib was dispensed into each well of the corresponding plate. 30 μl of medium was dispensed into each well not containing the substance.
(§3) Then, each well was incubated at 37° C. under 5% CO2 for 72 hours, and each experiment was performed in triplicate.
(§4) Next, using the CalcuSyn software and based on the Combination Index (CI) shown in Table 8, the CI for each ovarian cancer cell line depending on the treatment concentrations of PHI-101 and olaparib was calculated, and whether there was synergism between the substances was evaluated.

[5] = tested on: OVCAR3 ovarian cancer cell line; test: as above; conditions: Homo sapiens, OVCAR-3, Table 7, combination index experiment, 72 hours
Procedure: as §1, §2, §3, §4

[6] = tested on: CAOV3 ovarian cancer cell line; test: as above; conditions: Homo sapiens, Caov-3, Table 7, combination index experiment, 72 hours
Procedure: as §1, §2, §3, §4

[7] = tested on: TP53-mutant ovarian cancer cell lines; test: Selective inhibitory activity against TP53-mutant ovarian cancer cell lines; conditions: TP53-mutant versus non-mutant ovarian cancer cell lines (Table 2)
Description: In order to evaluate the selective inhibitory activity of PHI-101, the characteristics of each cell line and the inhibitory activity of PHI-101 against ovarian cancer cell lines were investigated as shown in Table 2 below.

[8] = tested on: OVCAR3 ovarian cancer cell line; test: Inhibitory activity against ovarian cancer cell lines, agents alone (Celltiter glo cell viability)
Procedure: as §5, §6

[9] = Homo sapiens, agent alone, 72 hours
[10] = Homo sapiens, Caov-3, agent alone, 72 hours
[11] = Homo sapiens, SK-OV-3, agent alone, 72 hours
[12] = Homo sapiens, OVCAR-3, agent alone, 72 hours

NC(=O)Nc1cc(C#Cc2cccc(F)c2)sc1C(=O)N[C@H]1CCCNC1 [PHI-101, (S)-5-((3-fluorophenyl)ethynyl)-N-(piperidin-3-yl)-3-ureido thiophene-2-carboxamide]
IC50 ([1]; Homo sapiens, Table 4, values used to establish treatment starting concentrations): 3.64 µM
IC50 [1, 9]: 3.6 µM
IC50 ([2]; Homo sapiens, Caov-3, Table 4, values used to establish treatment starting concentrations): 0.523 µM
IC50 [2, 10]: 0.5 µM
IC50 ([3]; Homo sapiens, SK-OV-3, Table 4, values used to establish treatment starting concentrations): 5.6 µM
IC50 [3, 11]: 5.6 µM
IC50 [4]: 4.39 µM
IC50 [5]: 3.5 µM
IC50 [6]: 0.873 µM
selective inhibitory activity [7]: better inhibitory activity against the TP53-mutant ovarian cancer cell lines
IC50 ([8]; Homo sapiens, OVCAR-3, Table 4, values used to establish treatment starting concentrations): 2.76 µM
IC50 [8, 12]: 2.7 µM

COc1cccc(OCCCN)c1-c1cc(Nc2cnc(C#N)cn2)n[nH]1 [Prexasertib, prexasertib]
IC50 [8, 12]: 6.3 µM

CC[C@@]1(O)C(=O)OCc2c1cc1n(c2=O)Cc2cc3c(CN(C)C)c(O)ccc3nc2-1 [Topotecan, topotecan]
IC50 [1, 9]: 14.4 µM
IC50 [2, 10]: 3.9 µM
IC50 [3, 11]: 3.7 µM
IC50 [8, 12]: 8.3 µM

N.N.[Cl][Pt][Cl] [Cisplatin, cisplatin]
IC50 ([1]; agent alone, 72 hours): 8 µM
IC50 ([2]; agent alone, 72 hours): 3.5 µM
IC50 ([3]; agent alone, 72 hours): 12.3 µM
IC50 ([8]; agent alone, 72 hours): 4.4 µM

CC(=O)O[C@H]1C(=O)[C@@]2(C)[C@H]([C@H](OC(=O)c3ccccc3)[C@]3(O)C[C@H](OC(=O)[C@H](O)[C@@H](NC(=O)c4ccccc4)c4ccccc4)C(C)=C1C3(C)C)[C@]1(OC(C)=O)CO[C@@H]1C[C@@H]2O [Paclitaxel, paclitaxel]
IC50 [1, 9]: 29.8 µM
IC50 [2, 10]: 3.6 µM
IC50 [3, 11]: 114 µM
IC50 [8, 12]: 5.7 µM

O=C(c1cc(Cc2n[nH]c(=O)c3ccccc23)ccc1F)N1CCN(C(=O)C2CC2)CC1 [Olaparib, olaparib]
IC50 [1, 9]: 147 µM
IC50 [2, 10]: 59.7 µM
IC50 [3, 11]: 114 µM
IC50 [4]: 114 µM
IC50 [5]: 96.5 µM
IC50 [6]: 59.7 µM
IC50 [8, 12]: 96.5 µM
